Experiments:
metalloelastase MMP-12 = target: T1, metalloelastase MMP-12 (Homo sapiens, UniProt P39900); assay: Test for enzymatic inhibition of MMP-12 (colorimetric, thiopeptide substrate/DTNB); assay type: biochemical; conditions: purified human enzyme; for IC50: 1 h preincubation, 150 μM substrate, read-out: IC50 MMP12; for Ki: read-out: Ki MMP12
T1 construct: purchased Anaspec, USA
Experimental: (§1) Protocols of the Tests for Enzymatic Inhibition of MMP-9 and MMP-12
(§2) The enzymatic tests for screening compounds 1 to 7 were carried out in solution on two purified human enzymes: the gelatinase MMP-9 (Anaspec, USA) and the metalloelastase MMP-12 (Anaspec, USA).
(§3) The principle is based on the cleavage, by the MMP-9 or MMP-12 enzyme, of a chromogenic substrate: the thiopeptide (Ac-Pro-Leu-Gly-[2-mercapto-4-methylpentanoyl]-Leu-Gly-OC2H5) (Enzo Life Sciences, USA).
(§4) The hydrolysis of this thiopeptide produces a sulfhydryl group which reacts with Ellman's reagent: 5,5′-dithiobis(2-nitrobenzoic acid) (DTNB) to form 2-nitro-5-thiobenzoic acid (TNB), which is detected by its absorbance at 412 nm
(§5) The tests are carried out in the buffer 50 mM Hepes, 10 mM CaCl2, 0.5% Brij35, 1 mM DTNB, pH 7.0 containing the purified MMP-9 and MMP-12 enzymes diluted to the final concentration of 0.8 μg/ml.
(§6) After preincubation of the enzymes (1 h at ambient temperature in the dark) with or without the products tested (minimum of four doses serially diluted one-in-ten), the cleavage reactions are initiated by adding 150 μM (final concentration) of substrate in a total final volume of 100 μl (96-well plate format).
(§7) The plates containing the reactions are read in a microplate reader (Multiskan Ascent, ThermoElectron, France) in order to continuously measure the absorbance and to record values every […] for 3 h. Each condition is carried out in triplicate.
(§8) The concentration which inhibits 50% of the reaction (IC50) is determined from curves representing the absorbance (optical density) of the final reaction product (TNB) as a function of the doses tested. Each experiment is carried out at least twice.

gelatinase MMP-9 = target: T2, gelatinase MMP-9 (Homo sapiens, UniProt P14780); assay: Test for enzymatic inhibition of MMP-9 (colorimetric, thiopeptide substrate/DTNB); assay type: biochemical; conditions: purified human enzyme; for IC50: 1 h preincubation, 150 μM substrate, read-out: IC50 MMP9; for Ki: read-out: Ki MMP9
T2 construct: purchased Anaspec, USA
Experimental: as §1, §2, §3, §4, §5, §6, §7, §8

T2 sequence (P14780 94-707): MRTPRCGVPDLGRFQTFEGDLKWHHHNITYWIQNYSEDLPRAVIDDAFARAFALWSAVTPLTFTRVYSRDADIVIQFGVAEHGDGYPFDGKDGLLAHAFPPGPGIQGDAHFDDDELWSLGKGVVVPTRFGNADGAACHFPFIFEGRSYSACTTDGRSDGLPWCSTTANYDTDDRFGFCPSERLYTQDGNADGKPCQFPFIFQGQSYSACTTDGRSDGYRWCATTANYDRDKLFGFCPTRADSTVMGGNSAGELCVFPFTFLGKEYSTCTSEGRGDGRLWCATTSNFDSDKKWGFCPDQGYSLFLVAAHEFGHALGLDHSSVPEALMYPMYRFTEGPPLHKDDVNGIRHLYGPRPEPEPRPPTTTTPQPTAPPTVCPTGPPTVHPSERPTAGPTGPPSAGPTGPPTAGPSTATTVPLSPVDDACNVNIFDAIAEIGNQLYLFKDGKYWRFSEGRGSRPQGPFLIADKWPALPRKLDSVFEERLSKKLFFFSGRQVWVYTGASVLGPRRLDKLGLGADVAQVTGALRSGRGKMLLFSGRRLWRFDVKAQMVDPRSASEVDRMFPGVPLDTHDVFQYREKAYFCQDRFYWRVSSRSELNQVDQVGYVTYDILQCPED
T1 sequence (P39900 106-470): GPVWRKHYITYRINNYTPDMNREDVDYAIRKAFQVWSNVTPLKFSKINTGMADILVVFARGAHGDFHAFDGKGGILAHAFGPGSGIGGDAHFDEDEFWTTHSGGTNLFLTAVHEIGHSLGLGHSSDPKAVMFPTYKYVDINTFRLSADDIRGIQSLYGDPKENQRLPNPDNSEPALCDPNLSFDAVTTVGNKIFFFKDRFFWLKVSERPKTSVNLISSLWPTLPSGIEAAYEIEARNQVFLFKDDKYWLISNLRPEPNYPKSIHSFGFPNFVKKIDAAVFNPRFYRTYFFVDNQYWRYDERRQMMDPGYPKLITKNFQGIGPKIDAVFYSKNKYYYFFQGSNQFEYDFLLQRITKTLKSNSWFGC

SMILES | IC50 (metalloelastase MMP-12) [µM] | Ki (metalloelastase MMP-12) [µM] | IC50 (gelatinase MMP-9) [µM] | Ki (gelatinase MMP-9) [µM]
C=C[C@H](C(=O)N[C@@H](Cc1ccccc1)C(=O)O)[C@H](O)c1cc(OCc2ccc(OC)cc2)n(-c2ccccc2)n1 [Compound 4, (S)-2-((S)-2-((S)-hydroxy-(5-(4-methoxybenzyloxy)-1-phenyl-1H-pyrazol-3-yl)methyl)but-3-enamido)-3-phenylpropanoic acid] | 20.2 | 10.3 | 259 | 128
C=C[C@H](C(=O)N[C@@H](Cc1ccccc1)C(=O)NO)[C@H](O)c1cc(OCc2ccc(OC)cc2)n(-c2ccccc2)n1 [Compound 5, (S)-2-((S)-hydroxy-(5-(4-methoxybenzyloxy)-1-phenyl-1H-pyrazol-3-yl)methyl)-N—((S)-1-(hydroxyamino)-1-oxo-3-phenylpropan-2-yl)but-3-enamide] | 22.3 | 11.4 | 19.8 | 9.78
C=C[C@H](C(=O)N[C@@H](CCSC)C(=O)O)[C@H](O)CCCC [Compound 7, (S)-2-((2S,3R)-3-hydroxy-2-vinylheptanamido)-4-(methylthio)butanoic acid] | 78.3 | 39.9 | 330 | 163

Further compounds by falling IC50 (metalloelastase MMP-12), results first:

IC50 (metalloelastase MMP-12) [µM] | Ki (metalloelastase MMP-12) [µM] | IC50 (gelatinase MMP-9) [µM] | Ki (gelatinase MMP-9) [µM] | SMILES
20 | 10.2 | 126 | 62.2 | C=C[C@H](C(=O)N[C@@H](Cc1ccccc1)C(=O)NC1CCCCC1)[C@H](O)c1ccc(-c2ccccc2)cc1 [Compound 2, (S)-2-((S)-biphenyl-4-yl(hydroxy)methyl)-N—((S)-1-(cyclohexylamino)-1-oxo-3-phenylpropan-2-yl)but-3-enamide]
19.5 | 9.95 | 18.1 | 8.95 | C=C[C@H](C(=O)N[C@@H](Cc1ccccc1)C(=O)NC1CCCCC1)[C@@H](C)O [Compound 1, (S)—N—((S)-1-(cyclohexylamino)-1-oxo-3-phenylpropan-2-yl)-2-((R)-1-hydroxyethyl)but-3-enamide]
7.23 | 3.68 | 5 | 2.47 | C=C[C@H](C(=O)N[C@@H](Cc1ccccc1)C(=O)NC1CCCCC1)[C@H](O)c1cc(OCc2ccc(OC)cc2)n(-c2ccccc2)n1 [Compound 3, (S)—N—((S)-1-(cyclohexylamino)-1-oxo-3-phenylpropan-2-yl)-2-((S)-hydroxy(5-(4-methoxybenzyloxy)-1-phenyl-1H-pyrazol-3-yl)methyl)but-3-enamide]
6.3 | 3.21 | 13.1 | 6.47 | C=C[C@H](C(=O)N[C@@H](CC(=O)O)C(=O)O)[C@H](O)c1cc(OCc2ccc(OC)cc2)n(-c2ccccc2)n1 [Compound 6, (S)-2-((S)-2-((S)-hydroxy-(5-(4-methoxybenzyloxy)-1-phenyl-1H-pyrazol-3-yl)methyl)but-3-enamido)succinic acid]
